This assay has as its system M. tb.pFICTO-dapB. In words: microbe, parasite or virus in culture. Format: cell-based, Mycobacterium tuberculosis.

In brackets after ≈: the same amount, converted by molar mass.

As for `COC(=O)CCCc1nc2ccccc2nc1N=Nc1ccccc1` [Compound B59, 4-(3-Phenylazoquinoxalin-2-yl) butanoic acid methyl ester], where the note is “M. tb.pFICTO-dapB vs M. tb H37Rv”, the “MIC99 in overexpressing strain relative to wild type” value was 2 x MIC99. Besides, the MIC99 (Mycobacterium tuberculosis, 168 h, M. tb.pFICTO-dapB, 7 days, read-out: MIC99 against DapB-overexpressing strain) stood at 40 µg/mL (≈ 120 µM).

These data come from publication PMC10714930, “In silico virtual screening for the identification of novel inhibitors against dihydrodipicolinate reductase (DapB) of Mycobacterium tuberculosis, a key enzyme of diaminopimelate pathway” (Microbiology Spectrum, 2023).
